Test results taken from patent US10975068B2, “6-aminopyridin-3-yl thiazoles as modulators of RORγT” (Janssen Pharmaceutica NV, priority 2016, dated 2021).
Where two headings read alike, the source gives them in different places.

What was measured:
[1] = biological target: human RORγt ligand binding domain (RORγt LBD) (Homo sapiens (Human), UniProt P51449); test: RORγt ThermoFluor® assay (thermal shift binding); conditions: read-out: ThermoFluor® Assay, Kd
How it was run: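 Binding was inferred from thermal stabilisation (ΔTm) of the E. coli-expressed RORγt LBD (0.065 mg/mL), monitored by 1,8-ANS (60 μM) emission at 500 nm during a 1 °C/min ramp. Buffer was Hepes 100 mM pH 7.0 with NaCl, GSH and Tween-20.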

[2] = biological target: full-length human RORγt (Homo sapiens (Human), UniProt P51449); test: RORγt (full-length human) reporter assay, Conditions B or C; format: cell-based; conditions: for RORγt (FL) Reporter Assay B or C, % inhibition (value marked *): marked *: footnote not given; for IC50: read-out: RORγt (FL) Reporter Assay B or C, IC50; for inhibition at 3 µM: at 3 μM compound concentration
Sequence of full-length human RORγt (P51449 other isoform, or with tags, fused parts or gaps): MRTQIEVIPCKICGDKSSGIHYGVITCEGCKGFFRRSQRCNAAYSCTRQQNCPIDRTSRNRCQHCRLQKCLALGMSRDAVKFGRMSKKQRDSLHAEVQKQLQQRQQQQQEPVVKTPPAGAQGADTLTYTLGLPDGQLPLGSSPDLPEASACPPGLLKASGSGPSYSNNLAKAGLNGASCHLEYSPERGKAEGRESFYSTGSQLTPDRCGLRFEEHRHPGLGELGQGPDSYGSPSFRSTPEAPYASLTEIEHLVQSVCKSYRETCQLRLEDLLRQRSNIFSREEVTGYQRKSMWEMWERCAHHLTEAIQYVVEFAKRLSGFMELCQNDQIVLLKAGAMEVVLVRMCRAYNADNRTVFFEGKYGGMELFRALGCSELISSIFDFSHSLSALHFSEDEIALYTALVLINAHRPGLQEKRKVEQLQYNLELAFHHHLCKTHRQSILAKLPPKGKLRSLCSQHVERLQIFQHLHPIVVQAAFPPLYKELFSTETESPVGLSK
How it was run: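 Readout is dual luciferase: firefly (GAL4-driven) normalized to DMSO-only and saturating-reference controls, then to CMV-Renilla. Full-length human RORγt fused to GAL4-DBD was transiently expressed in HEK293T; compound exposure ran overnight (16-20 h) starting 4-6 h after transfection, final FBS 1.3%, DMSO 0.1%.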

[3] = read-out: RORγt (FL) Reporter Assay B or C, % inhibition

Sequence of human RORγt ligand binding domain (RORγt LBD) (P51449 other isoform, or with tags, fused parts or gaps): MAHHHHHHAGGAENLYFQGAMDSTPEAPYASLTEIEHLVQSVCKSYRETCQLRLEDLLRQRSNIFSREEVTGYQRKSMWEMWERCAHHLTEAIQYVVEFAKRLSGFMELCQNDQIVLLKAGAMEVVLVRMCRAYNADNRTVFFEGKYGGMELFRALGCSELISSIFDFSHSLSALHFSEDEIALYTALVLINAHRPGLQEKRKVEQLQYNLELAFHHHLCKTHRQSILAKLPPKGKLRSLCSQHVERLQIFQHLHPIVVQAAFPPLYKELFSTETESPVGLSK

SMILES | Kd [1] [nM] | RORγt (FL) Reporter Assay B or C, % inhibition (value marked *) ([2]; Conditions B or C) | IC50 ([2]; Conditions B or C) [nM] | RORγt (FL) Reporter Assay B or C, % inhibition (value marked ***) ([2]; Conditions B or C, marked ***: footnote not given) | inhibition at 3 µM [2, 3] [%] | IC50 [2] [nM] | inhibition at 1 µM ([2]; at 1 μM compound concentration, read-out: RORγt (FL) Reporter Assay B or C, % inhibition) [%]
C[C@@H](Nc1cc(C(F)(F)F)c(-c2sc(C(=O)NCC(C)(C)O)nc2C(=O)N2C3CCC2CC3)cn1)C1CCC1 (stereo in doubt) [Example 172, 4-((1s,4s)-7-Azabicyclo[2.2[1]heptane-7-carbonyl)-5-(6-(((R*)-1-cyclobutylethyl)amino)-4-(trifluoromethyl)pyridine-3-yl)-N-(2-hydroxy-2-methylpropyl)thiazole-2-carboxamide] | 1.2 | 102* % | 39 |  |  |  | 
CC[C@@H](Nc1cc(C(F)F)c(-c2sc(C(=O)N[C@H](C)CO)nc2C(=O)N2CCC[C@@H]2C)cn1)C(F)(F)F [Example 206, 5-(4-(Difluoromethyl)-6-(((1R)-1-(trifluoromethyl)propyl)amino)-3-pyridyl)-N-((1R)-2-hydroxy-1-methyl-ethyl)-4-((2S)-2-methylpyrrolidine-1-carbonyl)thiazole-2-carboxamide] | 3.2 |  | 35 | 106*** % |  |  | 
CCC(C)(C)Nc1cc(C(F)F)c(-c2sc(C(=O)NCC(C)(C)O)nc2C(=O)N2CC(F)(F)C[C@@H]2C)cn1 [Example 94, (S)-4-(4,4-Difluoro-2-methylpyrrolidine-1-carbonyl)-5-(4-(difluoromethyl)-6-(tert-pentylamino)pyridin-3-yl)-N-(2-hydroxy-2-methylpropyl)thiazole-2-carboxamide] | 0.36 | 115* % | 12 |  |  |  | 
CC(C)[C@H](C)Nc1cc(C(F)F)c(-c2sc(C(=O)NCC(C)(C)O)nc2C(=O)N2CCC[C@@H]2C)cn1 [Example 300, 5-(4-(Difluoromethyl)-6-(((S)-3-methylbutan-2-yl)amino)pyridine-3-yl)-N-(2-hydroxy-2-methylpropyl)-4-((S)-2-methylpyrrolidine-1-carbonyl)thiazole-2-carboxamide] | 1.6 |  |  |  | 100 | 29 | 
C[C@H](Nc1cc(C(F)F)c(-c2sc(C(=O)NC3CCOCC3)nc2C(=O)N2CC(F)(F)C[C@@H]2C)cn1)C(F)(F)F [Example 448, 4-[(2S)-4,4-Difluoro-2-methyl-pyrrolidine-1-carbonyl]-5-[4-(difluoromethyl)-6-[[(1S)-2,2,2-trifluoro-1-methyl-ethyl]amino]-3-pyridyl]-N-tetrahydropyran-4-yl-thiazole-2-carboxamide] | 0.8 |  |  |  | 99 | 28 | 
CC[C@H](Nc1cc(C(F)F)c(-c2sc(C(=O)N[C@H]3C[C@@H]3O)nc2C(=O)N2CCC[C@@H]2C)cn1)C(F)(F)F (relative stereo) [Example 214, 5-(4-(Difluoromethyl)-6-(((S)-1,1,1-trifluorobutan-2-yl)amino)pyridin-3-yl)-N-((1S*,2S*)-2-hydroxycyclopropyl)-4-((S)-2-methylpyrrolidine-1-carbonyl)thiazole-2-carboxamide] | 12 | 98* % | 75 |  |  |  | 
C[C@H]1CCCN1C(=O)c1nc(C(=O)N2C[C@@H]3C[C@H]2CO3)sc1-c1cnc(NC(C)(C)C)cc1C(F)(F)F [Example 360, [5-[6-(tert-Butylamino)-4-(trifluoromethyl)-3-pyridyl]-2-[(1S,4S)-2-oxa-5-azabicyclo[2.2.1]heptane-5-carbonyl]thiazol-4-yl]-[(2S)-2-methylpyrrolidin-1-yl]methanone] | 10 |  |  |  | 106 | 82 | 
C[C@H](Nc1cc(C(F)F)c(-c2sc(C(=O)N[C@@H]3CC[C@@H](O)C3)nc2C(=O)N2C3CCC2CC3)cn1)C(F)(F)F [Example 438, 4-((1s,4s)-7-Azabicyclo[2.2.1]heptane-7-carbonyl)-5-[4-(difluoromethyl)-6-[[(1S)-2,2,2-trifluoro-1-methyl-ethyl]amino]-3-pyridyl]-N-[(1R,3R)-3-hydroxycyclopentyl]thiazole-2-carboxamide] | 4 |  |  |  |  | 83 | 99
C[C@H](Nc1cc(C(F)(F)F)c(-c2sc(C(=O)N[C@@H](C)C(C)(C)O)nc2C(=O)N2CC(F)(F)C[C@@H]2C)cn1)C1CC1 [Example 202, 5-(6-(((S)-1-Cyclopropylethyl)amino)-4-(trifluoromethyl)pyridine-3-yl)-4-((S)-4,4-difluoro-2-methylpyrrolidine-1-carbonyl)-N—((S)-3-hydroxy-3-methylbutan-2-yl)thiazole-2-carboxamide] | 1.3 | 98* % | 17 |  |  |  | 
C[C@H]1CCCN1C(=O)c1nc(C(=O)N2CC[C@@H](O)C2)sc1-c1cnc(NC(C)(C)C)cc1C(F)(F)F [Example 349, [5-[6-(tert-Butylamino)-4-(trifluoromethyl)-3-pyridyl]-2-[(3R)-3-hydroxypyrrolidine-1-carbonyl]thiazol-4-yl]-[(2S)-2-methylpyrrolidin-1-yl]methanone] | 11 |  |  |  | 105 | 63 | 
C[C@H]1CCCN1C(=O)c1nc(C(=O)N[C@H](C)C(C)(C)O)sc1-c1cnc(N[C@H](C)C(F)(F)F)cc1C(F)F [Example 306, 5-(4-(Difluoromethyl)-6-(((R)-1,1,1-trifluoropropan-2-yl)amino)pyridin-3-yl)-N—((R)-3-hydroxy-3-methylbutan-2-yl)-4-((S)-2-methylpyrrolidine-1-carbonyl)thiazole-2-carboxamide] | 10 |  |  |  | 104 | 130 | 
CC[C@H](Nc1cc(C(F)F)c(-c2sc(C(=O)NC3CCS(=O)(=O)CC3)nc2C(=O)N2CCC[C@@H]2C)cn1)C(F)(F)F [Example 232, 5-(4-(Difluoromethyl)-6-(((S)-1,1,1-trifluorobutan-2-yl)amino)pyridin-3-yl)-N-(1,1-dioxidotetrahydro-2H-thiopyran-4-yl)-4-((S)-2-methylpyrrolidine-1-carbonyl)thiazole-2-carboxamide] | 3.4 | 122* % | 69 |  |  |  | 
CC[C@H](Nc1cc(C(F)F)c(-c2sc(C(=O)NC3CCOCC3)nc2C(=O)N2C3CCC2CC3)cn1)C(F)(F)F [Example 153] | 1.1 | 98* % | 52 |  |  |  | 
CC[C@H](Nc1cc(C(F)F)c(-c2sc(C(=O)NC3CCS(=O)(=O)CC3)nc2C(=O)N2CC(F)(F)C[C@@H]2C)cn1)C(F)(F)F [Example 426, 4-[(2S)-4,4-Difluoro-2-methyl-pyrrolidine-1-carbonyl]-5-[4-(difluoromethyl)-6-[[(1S)-1-(trifluoromethyl)propyl]amino]-3-pyridyl]-N-(1,1-dioxothian-4-yl)thiazole-2-carboxamide] | 0.37 |  |  |  | 96 | 79 | 
C[C@H](Nc1cc(C(F)F)c(-c2sc(C(=O)NCC(C)(C)O)nc2C(=O)N2C3CCC2CC3)cn1)C(F)(F)F [Example 136] | 16 | 109* % | 790 |  |  |  | 
